Here are results for three compounds from US20220195046A1, “METHODS OF TREATING TUMOR” (Bristol-Myers Squibb Company, priority 2019, published 2022).

Data set [1] deals with unresectable stage III or IV melanoma without a BRAF mutation. In words: Clinical trial NCT01721772: nivolumab vs dacarbazine in previously untreated melanoma without BRAF mutation. It counts as in vivo, human. Particulars: 3-year follow up, previously untreated BRAF wildtype advanced melanoma. As for the experimental part:
The present example reports data collected from two clinical trials: NCT01721772 and NCT01844505. In NCT01721772, 418 subjects with confirmed, unresectable, previously untreated stage III or IV melanoma without a BRAF mutation were randomly assigned in a 1:1 ratio to receive by means of intravenous infusion either 3 mg of nivolumab per kilogram of body weight every 2 weeks, plus a dacarbazine-matched placebo every 3 weeks (n=210, 206 treated), or 1000 mg of dacarbazine per square meter of body-surface area every 3 weeks, plus a nivolumab-matched placebo every 2 weeks (n=208, 205 treated). Randomization was stratified according to tumor PD-L1 status (positive vs. negative or indeterminate) and metastasis stage (M0, M1a, or M1b vs. M1c, defined according to the tumor-node-metastasis system of the American Joint Committee on Cancer and the International Union against Cancer).
The primary end point was overall survival. Secondary end points included investigator-assessed progression-free survival, objective response rate, tumor PD-L1 expression, and health related quality of life. Exploratory endpoints included safety, pharmacokinetics, and biomarker analysis.

For data set [2], the system named is unresectable stage III or IV melanoma. In words: Clinical trial NCT01844505: nivolumab, nivolumab plus ipilimumab, or ipilimumab in previously untreated melanoma. It counts as in vivo, human. The settings on record: 4-year follow up, first-line, advanced melanoma. As for the experimental part:
In NCT01844505, 945 previously untreated patients with unresectable stage III or IV melanoma were randomly assigned in a 1:1:1 ratio to receive one of the following regimens: (i) 3 mg of nivolumab per kilogram of body weight every 2 weeks (plus ipilimumab-matched placebo) (n=316, 313 treated); (ii) 1 mg of nivolumab per kilogram every 3 weeks plus 3 mg of ipilimumab per kilogram every 3 weeks for 4 doses, followed by 3 mg of nivolumab per kilogram every 2 weeks for cycle 3 and beyond (n=314, 313 treated); or 3 mg of ipilimumab per kilogram every 3 weeks for 4 doses (plus nivolumab-matched placebo) (n=315, 311 treated) (FIG. 14). Both nivolumab and ipilimumab were administered by means of intravenous infusion.
Randomization was stratified according to tumor PD-L1 status (positive vs. negative or indeterminate), BRAF mutation status (V600 mutation-positive vs. wild-type), and American Joint Committee on Cancer metastasis stage (M0, M1a, or M1b vs. M1c). Treatment continued until disease progression (as defined by RECIST, version 1.1), development of unacceptable toxic events, or withdrawal of consent.
Progression-free survival and overall survival were coprimary endpoints. Secondary endpoints included objective response rate, tumor PD-L1 expression, and health related quality of life. Exploratory endpoints included safety, pharmacokinetics, and biomarker analysis.

For data set [3], the system named is PD-L1, PD-1, T-cell markers (CD3, CD4, CD8, FOXP3), macrophage markers (CD68, CD163). In words: IHC biomarker assessment of pretreatment HCC tumor samples vs BOR and overall survival (NCT01658878). The arrangement: species or system human. The settings on record: for Objective response rate, % (95% CI): BOR. As for the experimental part: Pretreatment tumor samples (fresh or archival) were obtained from patients in the escalation and expansion phases receiving 3 mg/kg nivolumab (saved for IHC) or 0.1-10 mg/kg nivolumab (saved for RNA sequencing).
Samples were analyzed using (i) IHC to assess PD-L1, PD-1, T-cell markers (CD3, CD4, CD8, FOXP3), and macrophage markers (CD68, CD163); and (ii) RNA sequencing to assess tumor inflammatory signatures. Biomarkers were assessed for their association with clinical outcomes including BOR by blinded independent review committee (per RECIST v1.1) and overall survival. Analyses were performed using the standard Limma and Cox regression framework.

For data set [4] the following is noted: monotherapy, every two weeks; cited from earlier work.
Data set [5] has as its system advanced hepatocellular carcinoma (HCC). In words: Clinical Trial NCT01658878: nivolumab in advanced hepatocellular carcinoma, SOR-naive and SOR-experienced cohorts 1 and 2. It counts as in vivo, human. As for the experimental part: Cohort 1 comprised 80 SOR-naïve subjects, and Cohort 2 comprised 182 SOR-experienced subjects. Eleven subjects in Cohort 1 and 37 subjects in Cohort 2 were administered 0.1-10 mg/kg nivolumab as part of a dose-escalation analysis. Sixty-nine subject in Cohort 1 and 145 subjects in cohort 2 were administered 3 mg/kg nivolumab as part of a dose-expansion analysis. Following initial treatment, 154 subjects in Cohort 2 (9 subject from the dose-escalation study and 145 subjects from the dose-expansion study) were administered maintenance nivolumab at 3 mg/kg.
The primary endpoints of Clinical Trial NCT01658878 were safety and tolerability (dose-escalation) as well as objected response rate (ORR; dose-expansion). Secondary endpoints included ORR (dose-escalation), disease control rate, time to response, duration of response, and overall survival. Exploratory endpoints included biomarker assessments, which are discussed here. […]

[6] abbreviates: tumor cell PD-L1 <1%, SOR-experienced population n = 137.
[7] abbreviates: tumor cell PD-L1 <1%, overall population (SOR-naïve and SOR-experienced) n = 195.
[8] abbreviates: tumor cell PD-L1 ≥1%, SOR-experienced population n = 137.
[9] abbreviates: tumor cell PD-L1 ≥1%, overall population (SOR-naïve and SOR-experienced) n = 195.

As for `CN(C)/N=N/c1[nH]cnc1C(N)=O` [dacarbazine], in data set [1], the “ORR, % (95% CI)” value was determined as 14%; the “median OS, months (95% CI)” value was 11.2 (9.6-13.0) months; the “median PFS, months (95% CI)” value is 2.2 (2.1-2.5) months.
On to ipilimumab, for which, in data set [2], the “ORRb, % (95% CI)” value came to 19%; the “median OS, months (95% CI)” value was 19.9 (16.9-24.6) months; the “median PFS, months (95% CI)” value is on record as 2.9 (2.8-3.2) months.
Consider nivolumab, for which, in data set [3] (setting [6]), the “Complete response, n (%)” value was 4 (3.6) n (%); the “Partial response, n (%)” value is given as 10 (9) n (%); the “Progressive disease, n (%)” value was 42 (38.1) n (%); the “Stable disease, n (%)” value is listed as 49 (44.5) n (%). In addition, the “Objective response rate, % (95% CI)” value in data set [3] (setting [6]) is 12.7 (7.6-20.3) %. Also, in data set [3] (setting [7]), the “Complete response, n (%)” value is given as 6 (3.7) n (%); the “Partial response, n (%)” value is on record as 19 (11.9) n (%); the “Progressive disease, n (%)” value is recorded as 59 (37.1) n (%); the “Stable disease, n (%)” value was 66 (41.5) n (%). For the same compound, the “Objective response rate, % (95% CI)” value in data set [3] (setting [7]) is 15.7 (10.8-22.2) %. Moreover, in data set [3] (setting [8]), the “Complete response, n (%)” value was 1 (3.7) n (%); the “Partial response, n (%)” value is 6 (22.2) n (%); the “Progressive disease, n (%)” value was 10 (37) n (%); the “Stable disease, n (%)” value is recorded as 8 (29.6) n (%). The “Objective response rate, % (95% CI)” value in data set [3] (setting [8]) is given as 25.9 (12.9-44.9) %. Further, in data set [3] (setting [9]), the “Complete response, n (%)” value is 2 (5.5) n (%); the “Partial response, n (%)” value is 8 (22.2) n (%); the “Progressive disease, n (%)” value is reported as 15 (41.6) n (%); the “Stable disease, n (%)” value is listed as 9 (25) n (%). In data set [3] (setting [9]), the “Objective response rate, % (95% CI)” value is on record as 27.7 (15.7-44.1) %. The “maximum tolerated dose (MTD), not reached at highest dose” value in data set [4] was above 10 mg/kg. In addition, in data set [5], the ORR is 14.3% and the “subjects with duration of response (DOR) of at least 12 months” value stood at 50%. For the same compound, in data set [2], the “ORRb, % (95% CI)” value worked out at 45%; the “median OS, months (95% CI)” value is given as 36.9 (28.3—NR) months; the “median PFS, months (95% CI)” value is 6.9 (5.1-10.2) months. Further, in data set [1], the “ORR, % (95% CI)” value was 43%; the “median OS, months (95% CI)” value is listed as 37.5 (25.5—NR) months; the “median PFS, months (95% CI)” value is reported as 5.1 (3.5-12.2) months.
